# Experimental data as given in US12172983B2, “EGFR inhibitors” (Blueprint Medicines Corporation, priority 2019, dated 2024).
# Read-outs that look alike come from different tables or passages of the source.
# Legend:
# EGFR (L858R T790M C797S) = biological target: T1, EGFR (L858R T790M C797S) (Homo sapiens, UniProt P00533, C797S/L858R/T790M); experiment: Biochemical EGFR inhibition assay (Caliper mobility shift), EGFR LRTMCS mutant; conditions: inhibitory activity against EGFR LRTMCS mutant; apparent IC50; read-out: Ext Enz LRTMCS
# T1 construct: purchased SignalChem E10-122VG
# Summary of the method: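 Each enzyme was allowed to phosphorylate 10–20% of its peptide at 25° C. before EDTA (35 mM) quench. Separated substrate and product peaks were measured by mobility shift, giving apparent IC50 values.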
# [1] = test system: phosphorylation of EGFR (Tyr1068) in NCI-H1975 cell line that harbors the EGFR L858R T790M mutations; experiment: NCI-H1975 pEGFR AlphaLISA assay; type: cell-based; conditions: 4-5 hours incubation, read-out: Ext pEGFR H1975
# Summary of the method: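 NCI-H1975 cells (EGFR L858R/T790M) seeded overnight, then treated with compound for 4-5 h at 37 °C/5% CO2. After lysis, p-EGFR (Tyr1068) quantified by AlphaLISA SureFire Ultra with acceptor then donor beads; IC50 fitted from percent inhibition versus log concentration.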
# [2] = Homo sapiens, NCI-H1975, inhibition of phosphorylation of mutant EGFR in NCI-H1975 cells
# T1 sequence (P00533 25-1210 T790M/C797S/L858R): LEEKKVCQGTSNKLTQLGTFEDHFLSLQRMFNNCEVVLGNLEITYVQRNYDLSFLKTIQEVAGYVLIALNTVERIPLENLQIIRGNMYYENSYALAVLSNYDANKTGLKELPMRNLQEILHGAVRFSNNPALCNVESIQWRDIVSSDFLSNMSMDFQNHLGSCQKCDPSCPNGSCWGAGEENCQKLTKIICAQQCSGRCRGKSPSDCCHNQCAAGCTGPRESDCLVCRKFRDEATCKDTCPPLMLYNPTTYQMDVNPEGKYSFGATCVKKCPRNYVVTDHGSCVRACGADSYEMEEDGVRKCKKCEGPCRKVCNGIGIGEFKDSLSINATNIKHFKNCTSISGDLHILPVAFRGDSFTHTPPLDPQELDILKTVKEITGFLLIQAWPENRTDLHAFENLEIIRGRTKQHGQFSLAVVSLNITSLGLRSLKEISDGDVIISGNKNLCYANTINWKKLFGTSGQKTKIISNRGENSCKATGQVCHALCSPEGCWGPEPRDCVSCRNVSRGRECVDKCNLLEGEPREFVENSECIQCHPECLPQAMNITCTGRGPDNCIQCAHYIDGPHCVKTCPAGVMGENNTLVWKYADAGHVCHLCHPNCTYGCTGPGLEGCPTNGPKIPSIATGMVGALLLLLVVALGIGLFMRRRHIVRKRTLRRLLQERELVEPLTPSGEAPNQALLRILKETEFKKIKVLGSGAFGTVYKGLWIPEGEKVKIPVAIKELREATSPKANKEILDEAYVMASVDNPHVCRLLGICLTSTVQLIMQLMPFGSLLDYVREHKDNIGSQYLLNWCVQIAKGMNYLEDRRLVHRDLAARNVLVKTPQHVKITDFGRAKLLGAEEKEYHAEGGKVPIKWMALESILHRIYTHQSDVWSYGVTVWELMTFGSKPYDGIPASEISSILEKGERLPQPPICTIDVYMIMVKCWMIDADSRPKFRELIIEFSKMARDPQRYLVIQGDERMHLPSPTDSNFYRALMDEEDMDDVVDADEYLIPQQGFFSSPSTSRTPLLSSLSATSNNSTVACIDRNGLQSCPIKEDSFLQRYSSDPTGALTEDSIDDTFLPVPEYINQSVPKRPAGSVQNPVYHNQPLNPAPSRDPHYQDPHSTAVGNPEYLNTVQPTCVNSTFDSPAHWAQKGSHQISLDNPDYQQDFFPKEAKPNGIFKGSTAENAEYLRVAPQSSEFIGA
Compound,IC50 (EGFR (L858R T790M C797S)) [µM],IC50 ([1]; inhibition of phosphorylation of mutant EGFR in NCI-H1975 cells) [µM],"IC50 [1, 2] [µM]"
"CC(C)c1cnc(N2CC(CS(C)(=O)=O)C2)c2cnc(Nc3ccnc(N4C[C@H]5COC[C@H]5C4)n3)cc12 [Compound 14, N-{2-[(3aR,6aS)-hexahydro-1H-furo[3,4-c]pyrrol-5-yl]pyrimidin-4-yl}-8-[3-(methanesulfonylmethyl)azetidin-1-yl]-5-(propan-2-yl)-2,7-naphthyridin-3-amine or N-{2-[(3aS,6aR)-hexahydro-1H-furo[3,4-c]pyrrol-5-yl]pyrimidin-4-yl}-8-[3-(methanesulfonylmethyl)azetidin-1-yl]-5-(propan-2-yl)-2,7-naphthyridin-3-amine]",0.0151 to 0.02,0.0301 to 0.05,–
"CC(C)c1ccc(N2C[C@H](CS(C)(=O)=O)[C@H]2C)c2cnc(Nc3ccnc(N4CCN(C)CC4)n3)cc12 [Compound 16, 8-[(2R,3S)-3-(methanesulfonylmethyl)-2-methylazetidin-1-yl]-N-[2-(4-methylpiperazin-1-yl)pyrimidin-4-yl]-5-(propan-2-yl)isoquinolin-3-amine]",0.0201 to 0.03,–,0.0101 to 0.02
"CC(C)c1ccc(N2CC(CS(C)(=O)=O)C2)c2cnc(Nc3ccnc(N4CCC(C)(O)CC4)n3)cc12 [Compound 17, 1-[4-({8-[3-(methanesulfonylmethyl)azetidin-1-yl]-5-(propan-2-yl)isoquinolin-3-yl}amino)pyrimidin-2-yl]-4-methylpiperidin-4-ol]",≤ 0.015,–,0.0101 to 0.02
"COC1CCN(c2nccc(Nc3cc4c(C(C)C)cnc(N5CC(CS(C)(=O)=O)C5)c4cn3)n2)CC1 [Compound 22, 8-[3-(methanesulfonylmethyl)azetidin-1-yl]-N-[2-(4-methoxypiperidin-1-yl)pyrimidin-4-yl]-5-(propan-2-yl)-2,7-naphthyridin-3-amine]",≤ 0.015,–,≤ 0.01
"COC1CCN(c2nncc(Nc3cc4c(C(C)C)ccc(N5CC(CS(C)(=O)=O)C5)c4cn3)n2)CC1 [Compound 23, 8-[3-(methanesulfonylmethyl)azetidin-1-yl]-N-[3-(4-methoxypiperidin-1-yl)-1,2,4-triazin-5-yl]-5-(propan-2-yl)isoquinolin-3-amine]",≤ 0.015,–,0.0101 to 0.02
"CC(C)c1ccc(N2CC(CS(C)(=O)=O)C2)c2cnc(Nc3ccnc(N4CC[C@@H](O)[C@@H](F)C4)n3)cc12 [Compound 28, (3S,4R)-3-fluoro-1-[4-({8-[3-(methanesulfonylmethyl)azetidin-1-yl]-5-(propan-2-yl)isoquinolin-3-yl}amino)pyrimidin-2-yl]piperidin-4-ol]",≤ 0.015,–,≤ 0.01
"CC(C)c1ccc(N2CC(CS(C)(=O)=O)C2)c2cnc(Nc3ccnc(N4CC[C@H](O)[C@H](F)C4)n3)cc12 [Compound 29, (3R,4S)-3-fluoro-1-[4-({8-[3-(methanesulfonylmethyl)azetidin-1-yl]-5-(propan-2-yl)isoquinolin-3-yl}amino)pyrimidin-2-yl]piperidin-4-ol]",≤ 0.015,–,≤ 0.01
"CO[C@@H]1CCN(c2nccc(Nc3cc4c(F)ccc(N5C[C@H](CS(C)(=O)=O)[C@H]5C)c4cn3)n2)C[C@@H]1F [Compound 36, 5-fluoro-N-{2-[(3S,4R)-3-fluoro-4-methoxypiperidin-1-yl]pyrimidin-4-yl}-8-[(2R,3S)-3-(methanesulfonylmethyl)-2-methylazetidin-1-yl]isoquinolin-3-amine]",≤ 0.015,–,≤ 0.01
"CO[C@H]1CCN(c2nccc(Nc3cc4c(F)ccc(N5C[C@H](CS(C)(=O)=O)[C@H]5C)c4cn3)n2)C[C@H]1F [Compound 37, 5-fluoro-N-{2-[(3R,4S)-3-fluoro-4-methoxypiperidin-1-yl]pyrimidin-4-yl}-8-[(2R,3S)-3-(methanesulfonylmethyl)-2-methylazetidin-1-yl]isoquinolin-3-amine]",≤ 0.015,–,0.0101 to 0.02
"CC(C)c1ccc(N2CC(CS(C)(=O)=O)C2)c2cnc(Nc3ccnc(N4CCC5(CCO5)CC4)n3)cc12 [Compound 38, 8-[3-(methanesulfonylmethyl)azetidin-1-yl]-N-(2-{1-oxa-7-azaspiro[3.5]nonan-7-yl}pyrimidin-4-yl)-5-(propan-2-yl)isoquinolin-3-amine]",≤ 0.015,–,≤ 0.01
"CC(C)c1ccc(N2CC(CS(C)(=O)=O)C2)c2cnc(Nc3ccnc(N4C[C@H]5CC[C@@H](C4)[C@@H]5O)n3)cc12 [Compound 39, Rac (1R,5S,8S)-3-[4-({8-[3-(methanesulfonylmethyl)azetidin-1-yl]-5-(propan-2-yl)isoquinolin-3-yl}amino)pyrimidin-2-yl]-3-azabicyclo[3.2.1]octan-8-ol]",≤ 0.015,–,0.0301 to 0.05
"CC(C)c1ccc(N2CC(CS(C)(=O)=O)C2)c2cnc(Nc3cnnc(N4CCC5(CCO5)CC4)n3)cc12 [Compound 42, 8-[3-(methanesulfonylmethyl)azetidin-1-yl]-N-(3-{1-oxa-7-azaspiro[3.5]nonan-7-yl}-1,2,4-triazin-5-yl)-5-(propan-2-yl)isoquinolin-3-amine]",≤ 0.015,–,0.0101 to 0.02
"COC1CCN(c2nccc(Nc3cc4c(C(C)C)cnc(N5C[C@H](CS(C)(=O)=O)[C@H]5C)c4cn3)n2)CC1 [Compound 50, 8-[(2R,3S)-3-(methanesulfonylmethyl)-2-methylazetidin-1-yl]-N-[2-(4-methoxypiperidin-1-yl)pyrimidin-4-yl]-5-(propan-2-yl)-2,7-naphthyridin-3-amine]",≤ 0.015,–,≤ 0.01
"CC(C)c1ccc(N2C[C@H](CS(C)(=O)=O)[C@H]2C)c2cnc(Nc3ccnc(N4CC[C@@H](O)[C@@H](F)C4)n3)cc12 [Compound 62, (3S,4R)-3-fluoro-1-(4-((5-isopropyl-8-((2R,3S)-2-methyl-3-((methylsulfonyl)methyl)azetidin-1-yl)isoquinolin-3-yl)amino)pyrimidin-2-yl)piperidin-4-ol]",≤ 0.015,–,≤ 0.01
"CO[C@H]1CCN(c2nccc(Nc3cc4c(C(C)C)ccc(N5CC(CS(C)(=O)=O)C5)c4cn3)n2)C[C@H]1F [Compound 63, N-(2-((3R,4S)-3-fluoro-4-methoxypiperidin-1-yl)pyrimidin-4-yl)-5-isopropyl-8-(3-(methylsulfonylmethyl)azetidin-1-yl)isoquinolin-3-amine]",≤ 0.015,–,≤ 0.01
"CO[C@@H]1CCN(c2nccc(Nc3cc4c(C(C)C)ccc(N5CC(CS(C)(=O)=O)C5)c4cn3)n2)C[C@@H]1F [Compound 64, N-(2-((3S,4R)-3-fluoro-4-methoxypiperidin-1-yl)pyrimidin-4-yl)-5-isopropyl-8-(3-(methylsulfonylmethyl)azetidin-1-yl)isoquinolin-3-amine]",≤ 0.015,–,≤ 0.01
"CO[C@H]1CCN(c2nccc(Nc3cc4c(C(C)C)cnc(N5CC(CS(C)(=O)=O)C5)c4cn3)n2)C[C@H]1F [Compound 71, N-{2-[(3R,4S)-3-fluoro-4-methoxypiperidin-1-yl]pyrimidin-4-yl}-8-[3-(methanesulfonylmethyl)azetidin-1-yl]-5-(propan-2-yl)-2,7-naphthyridin-3-amine]",≤ 0.015,–,≤ 0.01
"CO[C@@H]1CCN(c2nccc(Nc3cc4c(C(C)C)cnc(N5CC(CS(C)(=O)=O)C5)c4cn3)n2)C[C@@H]1F [Compound 72, N-{2-[(3S,4R)-3-fluoro-4-methoxypiperidin-1-yl]pyrimidin-4-yl}-8-[3-(methanesulfonylmethyl)azetidin-1-yl]-5-(propan-2-yl)-2,7-naphthyridin-3-amine]",≤ 0.015,–,≤ 0.01
"CO[C@H]1CCN(c2nccc(Nc3cc4c(C(C)C)ncc(N5CC(CS(C)(=O)=O)C5)c4cn3)n2)C[C@H]1F [Compound 73, N-{2-[(3R,4S)-3-fluoro-4-methoxypiperidin-1-yl]pyrimidin-4-yl}-8-[3-(methanesulfonylmethyl)azetidin-1-yl]-5-(propan-2-yl)-2,6-naphthyridin-3-amine]",≤ 0.015,–,≤ 0.01
"CO[C@@H]1CCN(c2nccc(Nc3cc4c(C(C)C)ncc(N5CC(CS(C)(=O)=O)C5)c4cn3)n2)C[C@@H]1F [Compound 74, N-{2-[(3S,4R)-3-fluoro-4-methoxypiperidin-1-yl]pyrimidin-4-yl}-8-[3-(methanesulfonylmethyl)azetidin-1-yl]-5-(propan-2-yl)-2,6-naphthyridin-3-amine]",≤ 0.015,–,≤ 0.01
"CO[C@@H]1CCN(c2nncc(Nc3cc4c(C(C)C)ccc(N5CC(CS(C)(=O)=O)C5)c4cn3)n2)C[C@@H]1F [Compound 75, N-{3-[(3S,4R)-3-fluoro-4-methoxypiperidin-1-yl]-1,2,4-triazin-5-yl}-8-[3-(methanesulfonylmethyl)azetidin-1-yl]-5-(propan-2-yl)isoquinolin-3-amine]",≤ 0.015,–,≤ 0.01
"CO[C@H]1CCN(c2nncc(Nc3cc4c(C(C)C)ccc(N5CC(CS(C)(=O)=O)C5)c4cn3)n2)C[C@H]1F [Compound 76, N-{3-[(3R,4S)-3-fluoro-4-methoxypiperidin-1-yl]-1,2,4-triazin-5-yl}-8-[3-(methanesulfonylmethyl)azetidin-1-yl]-5-(propan-2-yl)isoquinolin-3-amine]",≤ 0.015,–,≤ 0.01
"CCS(=O)(=O)C[C@H]1CN(c2ccc(F)c3cc(Nc4ccnc(N5CC[C@@H](OC)[C@@H](F)C5)n4)ncc23)[C@@H]1C [Compound 85, 8-[(2R,3S)-3-[(ethanesulfonyl)methyl]-2-methylazetidin-1-yl]-5-fluoro-N-{2-[(3S,4R)-3-fluoro-4-methoxypiperidin-1-yl]pyrimidin-4-yl}isoquinolin-3-amine]",≤ 0.015,–,0.0101 to 0.02
